This note sets out measurements from patent US8357687B2, “Macrocyclic indole derivatives useful as hepatitis C virus inhibitors” (priority 2008, dated 2013).

The structures appear in SMILES notation.

Data set [1] deals with NS5B chimeric replicon of clinical isolate 1a_H77 in Huh7-cure cells. In words: Transient replicon assay, chimeric replicon of clinical isolate 1a_H77 (CI1). Format: cell-based, HCV genotype 1a. To be noted: Hepatitis C virus, 48 h, read-out: EC50-T CI1.
For data set [2], the system named is NS5B chimeric replicon of clinical isolate 1a—6 in Huh7-cure cells. In words: Transient replicon assay, chimeric replicon of clinical isolate 1a—6 (CI2). Format: cell-based, HCV genotype 1a. Conditions: Hepatitis C virus, 48 h, read-out: EC50-T CI2.
For data set [3], the system named is wild type replicon of genotype 1b (con1b) in Huh7-cure cells. As to the kind of experiment: Transient replicon assay, wild type replicon of genotype 1b (Con1b). The class given is cell-based, HCV genotype 1b. Conditions: Hepatitis C virus, transient wild type replicon genotype 1b, 48 h, luciferase, read-out: EC50-T Con1b.
The target in data set [4] is T1, HCV NS5B polymerase (NS5BΔC21) (Hepatitis C virus genotype 1b, UniProt Q9WMX2).
T1 construct: NS5B (genotype 1b consensus strain Con1) lacking 21 C-terminal residues; made in house; host or cells: E. coli Rosetta 2 (DE3)
As to the kind of experiment: RNA-dependent RNA polymerase assay (enzyme inhibition assay). Format: biochemical, HCV (genotype 1b consensus strain Con1). The text has this: The coding sequence for NS5B (genotype 1b consensus strain Con1) lacking 21 C-terminal residues was amplified from plasmid pFKI389/ns3-3′ (Genbank accession no. AJ242654), plasmid pCV-H77C (Genbank accession no. AF 011751.1) and subcloned into the pET21b plasmid as described previously (Pauwels et al. J. Virol., 2007). The NS5BΔC21 expression constructs were transformed into E. coli Rosetta 2 (DE3) (Novagen, Madison, Wis.). One hundred milliliters of LB-medium supplemented with carbenicillin (50 μg/mL) and chloramphenicol (34 μg/mL) was inoculated with one colony, grown overnight, and transferred to fresh LB-medium supplemented with 3% ethanol, carbenicillin and chloramphenicol, at a ratio of 1:200. Cells were grown to an optical density at 600 nm of 0.6, after which the expression cultures were shifted to a growth temperature of 20° C. following induction with ispopropyl-1-thio-β-D-galactopyranoside and MgCl2 at a final concentration of 0.4 mM and 10 μM, respectively. After 18 h of induction, cells were harvested by centrifugation and resuspended in 20 mM Tris-HCl, pH 7.5, 300 mM NaCl, 10% glycerol, 0.1% NP40, 4 mM MgCl2, 5 mM DTT supplemented with EDTA-free Complete Protease Inhibitor (Roche, Basel, Switzerland). Cell suspensions were disrupted by sonication and incubated with 10-15 mg/L of DNase I (Roche, Basel, Switzerland) for 30 min. Cell debris was removed through ultracentrifugation at 30,000×g for 1 hour and clarified cell lysate was flash frozen and stored at −80° C. prior to purification.
Clarified cell lysate was thawed and subsequently loaded onto a 5 mL pre-packed HisTrap FF column equilibrated with 25 mM HEPES, pH 7.5, 500 mM NaCl, 10% glycerol and 5 mM DTT. Proteins were eluted with 500 mM imidazole at a flow rate of 1 mL/min. Fractions containing the protein of interest were applied onto a pre-packed 26/10 HiPrep Desalting Column equilibrated with 25 mM HEPES, pH 7.5, 250 mM NaCl, 10% glycerol and 5 mM DTT. The buffer-exchanged NS5B peak was then applied onto a 6 ml Resource S column. Protein was eluted with an increasing salt gradient and fractions collected. Protein purity was assessed on Nu-PAGE pre-cast gels (Invitrogen, Carlsbad, Calif.). Purified NS5B samples were concentrated using Centri-Prep concentrators (Millipore, Billerica, Mass., USA) and protein concentrations were determined by spectrofotometry with the Nanodrop (Nanodrop Technologies, Wilmington, Del., USA).
Measurement of HCV NS5B polymerization activity was performed by evaluating the amount of radio labeled GTP incorporated by the enzyme in a newly synthesized RNA using […] RNA template/primer. The RdRp assay was carried out in 384-well plates. 2.5 nM of purified NS5B enzyme was pre-incubated for 10 min with 150 nM 5′-biotinylated oligo(rG13) primer, 15 nM poly(rC) template, in 18 mM Tris-HCl, pH 7.5, 5 mM MgCl2, 20.5 mM KCl, 17 mM NaCl and 2.5 mM of DTT. The test compounds were the added to the preformed polymerase-template complex, and incubated at room temperature for 15 min before the addition 600 nM of GTP, and 0.13 μCi of [^3H]GTP. 30 μL reaction mixture was incubated at room temperature for 2 h before stopping the reaction by adding 30 μL of streptavidin coated SPA-beads (GE Healthcare, Uppsala, Sweden) in 0.5 M EDTA. […] IC50 values represent the concentration of compound required to decrease by 50% the amount of RNA produced which is measured by the detection of incorporated radiolabeled GTP.

Data set [5] in a line: Pharmacokinetic analysis after single oral administration. The class given is in vivo. To be noted: male Sprague-Dawley rats, single oral dose 10 mg/kg, 7 h post dosing; for Kp at 7 h: rat, liver/plasma, read-out: Lever/plasma ratio. As for the experimental part:
Three male Sprague-Dawley rats were given a single oral dose of 10 mg/kg of the studied compounds. The compounds were administered by gavage as a solution in PEG400/2% Vitamine E Tocopherol polyethyleneglycol succinate (Vitamin E-TPGS). 7 hours after administration, the animals were sacrificed and plasma and liver samples taken. The samples were analyzed using a qualified research LC-MS/MS method to determine the concentration of the compound in the liver and the liver-to-plasma ratio at 7 h post dosing.

The target in data set [6] is T2, NS5B wild-type enzyme genotype 1a (Hepatitis C virus genotype 1a, UniProt P27958).
T2 construct: The purified HIS6-tagged NS5BΔC21 polymerases were immobilized; made in house; host or cells: E. coli Rosetta 2 (DE3)
In words: Enzyme binding assay (SPR, Biacore), genotype 1a. Set-up: species or system HCV genotype 1a. To be noted: for kon / t1/2 (dissociative half-life): genotype 1a; for kon: SPR, 25° C.; for t1/2 (dissociative half-life): t1/2=ln(2)/koff. As for the experimental part:
(§1) The compounds of formula (I) were examined for their enzymatic binding kinetics or affinity using a Surface Plasmon Resonance (SPR)-based method, i.e. Biacore. A slow dissociation of the inhibiting compound from its viral target (low koff, low Kd) is believed to potentially reduce the development of drug resistance against anti-viral drugs (Dierynck et al. 2007. Journal of Virology, vol. 81, No. 24, 13845-13851). All measurements were performed on a Biacore T100 instrument (GE Healthcare). The purified HIS6-tagged NS5BΔC21 polymerases were immobilized using non-covalent capturing to an NTA sensor chip (GE Healthcare) in immobilization buffer (20 mM MOPS pH 7.4, 500 mM NaCl, 0.005% Tween-P20, 1 mM DTT, 50 μM EDTA). Interaction studies were all performed at 25° C. Inhibitors were serially diluted in running buffer (20 mM Tris-HCl pH 7.4, 150 mM NaCl, 50 μM EDTA, 1 mM DTT, 0.005% Tween-P20) containing 5% dimethyl sulfoxide (DMSO). Single-cycle kinetics were used, in which 5 increasing concentrations of compound were injected for a period of 300 s each in 1 single cycle, and dissociation was monitored for a period of 1200 s. The sensor surface was completely regenerated in between the cycles. Data were analyzed using simultaneous nonlinear regression analysis (global fitting) adapted for single-cycle kinetics with Biacore T100 BiaEval evaluation software 2.0 (GE Healthcare). The individual rate constants kon and koff and a derived affinity constant, Kd=koff/kon, were determined by a kinetic evaluation of the sensorgrams. The kinetic models accounted for bulk and limited mass transport effects. Every analysis was performed at least in two independent experiments. The dissociation rate of a kinetic interaction can be translated into a compound residence time (dissociative half-life t1/2=ln(2)/koff) representative for the interaction time between the polymerase and its inhibitor.
(§2) The observed association rate constants (kon), dissociation rate constants (koff), derived affinity constant (Kd) and dissociative half-life (t1/2) measured for compounds of formula (I) or subgroups thereof on NS5B wild-type enzyme genotypes 1a, 1b and 4a are given in Table 2.

Data set [7] has as its target T3, NS5B wild-type enzyme genotype 4a (UniProt O39929).
T3 construct: fused on or other part: His6 tag
As to the kind of experiment: Enzyme binding assay (SPR, Biacore), genotype 4a. Set-up: species or system HCV genotype 4a. To be noted: for Kd: Kd=koff/kon; for koff / kon: SPR, 25° C.; for t1/2 (dissociative half-life): t1/2=ln(2)/koff. As for the experimental part:
as §1, §2

For data set [8], the target named is T4, NS5B wild-type enzyme genotype 1b (Hepatitis C virus genotype 1b, UniProt Q9WMX2).
T4 construct: NS5B (genotype 1b consensus strain Con1) lacking 21 C-terminal residues; made in house; host or cells: E. coli Rosetta 2 (DE3)
As to the kind of experiment: Enzyme binding assay (SPR, Biacore), genotype 1b. To be noted: for koff / kon / t1/2 (dissociative half-life): genotype 1b; for koff / kon: SPR, 25° C.; for t1/2 (dissociative half-life): t1/2=ln(2)/koff. As for the experimental part:
as §1, §2

T2 sequence (P27958 2421-2990): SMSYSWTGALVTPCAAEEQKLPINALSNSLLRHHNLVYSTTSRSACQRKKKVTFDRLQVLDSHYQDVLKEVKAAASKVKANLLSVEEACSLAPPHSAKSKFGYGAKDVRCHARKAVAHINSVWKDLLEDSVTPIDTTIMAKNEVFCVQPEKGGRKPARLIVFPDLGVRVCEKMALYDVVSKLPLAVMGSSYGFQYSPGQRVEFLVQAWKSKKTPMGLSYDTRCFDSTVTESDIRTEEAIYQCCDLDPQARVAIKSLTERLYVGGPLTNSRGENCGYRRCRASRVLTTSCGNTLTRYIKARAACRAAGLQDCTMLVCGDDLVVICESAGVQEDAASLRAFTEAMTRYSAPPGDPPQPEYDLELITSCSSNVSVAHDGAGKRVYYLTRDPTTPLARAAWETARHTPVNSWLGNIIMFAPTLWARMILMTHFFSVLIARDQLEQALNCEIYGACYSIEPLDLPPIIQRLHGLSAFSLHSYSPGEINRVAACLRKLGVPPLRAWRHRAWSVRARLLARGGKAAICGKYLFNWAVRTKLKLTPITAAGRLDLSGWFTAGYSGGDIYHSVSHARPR

Consider `CN1CCOCCN(C)S(=O)(=O)NC(=O)c2ccc3c(C4CCCCC4)c(n(C)c3c2)-c2ccccc2OCC1=O` [Compound 10, 25-cyclohexyl-4,10,19-trimethyl-5,6,9,10-tetrahydro-2H,8H-14,18:17,20-di(metheno)-1,7,11,4,10,12,19-benzodioxathiatetraazacyclodocosine-3,13 (4H,12H,19H)-dione 11,11-dioxide], for which the EC50 in data set [1] worked out at 0.121 µM; in data set [2], 0.088 µM; in data set [3], 0.075 µM. Further, the 50% inhibitory concentration (IC50) in data set [4] amounted to 0.161 µM. The “Concentration Liver” value in data set [5] turned out to be 1717 ng/g. Also, the Kp at 7 h in data set [5] came out at 64.
Consider `CN1CCCCN(C)S(=O)(=O)NC(=O)c2ccc3c(C4CCCCC4)c(n(C)c3c2)-c2ccccc2OCC1=O` [Compound 15, 24-cyclohexyl-4,9,18-trimethyl-4,5,6,7,8,9-hexahydro-13,17:16,19-di(metheno)-1,10,4,9,11,18-benzoxathiatetraazacyclohenicosine-3,12(2H,11H,18H)-dione 10,10-dioxide], for which the results for the EC50 in data set [1], in data set [2] and in data set [3] were 0.102 µM, 0.099 µM and 0.169 µM, respectively. The IC50 in data set [4] is 0.124 µM. Also, the “Concentration Liver” value in data set [5] is 1524 ng/g. Moreover, the Kp at 7 h in data set [5] was 99.
As to `CN1CCCCCNC(=O)COc2cc(F)ccc2-c2c(C3CCCCC3)c3ccc(cc3n2C)C(=O)NS1(=O)=O` [Compound 50, 25-cyclohexyl-23-fluoro-10,19-dimethyl-5,6,7,8,9,10-hexahydro-2H-14,18:17,20-di(metheno)-1,11,4,10,12,19-benzoxathiatetraazacyclodocosine-3,13(4H,12H,19H)-dione 11,11-dioxide], the EC50 was determined as 0.117 µM in data set [1], 0.156 µM in data set [2] and 0.254 µM in data set [3]. Besides, the concentration for half-maximal inhibition (IC50) in data set [4] was 0.109 µM. The dissociation constant (Kd) in data set [6] was found to be 0.04 µM; in data set [7], 0.0091 µM; in data set [8] it was 0.025 µM. Further, the koff in data set [6] came out at 0.0067 s⁻¹; in data set [7], 0.002 s⁻¹; in data set [8], 0.0006 s⁻¹. Further, the kon in data set [6] was 1.7E+05 1/MS; in data set [7], 2.2E+05 1/MS; in data set [8], 2.3E+04 1/MS. In addition, the “t1/2 (dissociative half-life)” value stood at 1.72 min in data set [6], 5.72 min in data set [7] and 19.38 min in data set [8].
As for `CN1CCCCNC(=O)COc2ccccc2-c2c(C3CCCCC3)c3ccc(cc3n2C)C(=O)NS1(=O)=O` [Compound 32, 24-cyclohexyl-9,18-dimethyl-4,5,6,7,8,9-hexahydro-13,17:16,19-di(metheno)-1,10,4,9,11,18-benzoxathiatetraazacyclohenicosine-3,12(2H,11H,18H)-dione 10,10-dioxide], the concentration for a half-maximal effect (EC50) in data set [1] is 1.6 µM; in data set [2], 2.95 µM; in data set [3], 3.61 µM. For the same compound, inhibition in data set [4] was half-maximal at 1.82 µM (IC50). In addition, the Kd amounted to 3.3 µM in data set [6], 0.45 µM in data set [7] and 1.2 µM in data set [8]. Further, the results for the koff in data set [6], in data set [7] and in data set [8] were 0.0089 s⁻¹, 0.0087 s⁻¹ and 0.015 s⁻¹, respectively. The kon is recorded as 3.0E+03 1/MS in data set [6], 1.9E+04 1/MS in data set [7] and 1.3E+04 1/MS in data set [8]. Further, the “t1/2 (dissociative half-life)” value was 1.3 min in data set [6], 1.33 min in data set [7] and 0.783 min in data set [8].
